ChEMBL document CHEMBL1132099, “The design of potent and selective inhibitors of thrombin utilizing a piperazinedione template: part 2” (Bioorg Med Chem Lett, 1999)

Experiments:
[1] = target: T1, Prothrombin (Homo sapiens, UniProt P00734); test: Inhibitory concentration required against thrombin was determined
[2] = target: T2, Serine protease 1 (Homo sapiens, UniProt P07477); test: Inhibitory concentration required against trypsin was determined
[3] = target: T1, Prothrombin; test: Inhibition of thrombin
[4] = target: T2, Serine protease 1; test: Compound was tested for percent inhibition against trypsin at 100 uM
[5] = system: Trypsin; test: Compound was tested for percent inhibition against trypsin at 100 uM

T2 sequence (P07477 whole entry): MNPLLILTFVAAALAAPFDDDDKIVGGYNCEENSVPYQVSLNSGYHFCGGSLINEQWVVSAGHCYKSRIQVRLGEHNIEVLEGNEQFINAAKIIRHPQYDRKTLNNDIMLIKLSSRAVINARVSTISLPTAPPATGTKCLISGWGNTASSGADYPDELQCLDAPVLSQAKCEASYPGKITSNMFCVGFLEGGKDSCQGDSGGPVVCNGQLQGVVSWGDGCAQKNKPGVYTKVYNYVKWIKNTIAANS

IC50 [1]	IC50 [2]	Ki [3]	inhibition [4]	inhibition [5]	SMILES
1.23 µM	21 µM	–	–	–	N=C(N)N1CCCC(C[C@H](NC(=O)CN2C(=O)CN(Cc3ccccc3)C(=O)[C@H]2Cc2ccccc2)C(=O)c2nccs2)C1 (some centres not stated)
0.24 µM	25 µM	–	–	–	N=C(N)N1CCCC(C[C@H](NC(=O)CN2C(=O)CN(CCCc3ccc(O)cc3)C(=O)[C@H]2Cc2ccccc2)C(=O)c2nccs2)C1 (some centres not stated)
0.99 µM	45 µM	–	–	–	N=C(N)N1CCCC(C[C@H](NC(=O)CN2C(=O)CN(CCc3ccccc3)C(=O)[C@H]2Cc2ccccc2)C(=O)c2nccs2)C1 (some centres not stated)
0.28 µM	17 µM	–	–	–	N=C(N)N1CCCC(C[C@H](NC(=O)CN2C(=O)CN(CCCc3ccccc3)C(=O)[C@H]2Cc2ccc(Cl)cc2)C(=O)c2nccs2)C1 (some centres not stated)
–	–	–	20%	20%	N=C(N)NCCC[C@H](NC(=O)CN1C(=O)CN(CCCc2ccccc2)C(=O)[C@H]1Cc1ccccc1)C(=O)O
6.6 µM	–	0.825 µM	52%	–	N=C(N)N1CCCC(C[C@H](NC(=O)CN2C(=O)CN(CCCc3ccccc3)C(=O)[C@H]2Cc2ccccc2)C(=O)N2CCCCC2)C1 (some centres not stated)
0.16 µM	14 µM	–	–	–	COc1ccc(CCCN2CC(=O)N(CC(=O)N[C@@H](CC3CCCN(C(=N)N)C3)C(=O)c3nccs3)[C@H](Cc3ccccc3)C2=O)cc1 (some centres not stated)
0.88 µM	0.34 µM	–	–	–	C[C@@H]1C(=O)N(CCCc2ccccc2)CC(=O)N1CC(=O)N[C@@H](C[C@@H]1CCCN(C(=N)N)C1)C(=O)c1nccs1
0.25 µM	7.2 µM	–	–	–	N=C(N)N1CCCC(C[C@H](NC(=O)CN2C(=O)CN(CCCc3ccc(Cl)c(Cl)c3)C(=O)[C@H]2Cc2ccccc2)C(=O)c2nccs2)C1 (some centres not stated)
0.15 µM	3.7 µM	0.08 µM	–	–	N=C(N)N1CCCC(C[C@H](NC(=O)CN2C(=O)CN(CCCc3ccccc3)C(=O)[C@H]2Cc2ccccc2)C(=O)c2nc3ccccc3s2)C1 (some centres not stated)
–	–	–	15%	35%	N=C(N)NCCC[C@H](NC(=O)CN1C(=O)CN(CCCc2ccccc2)C(=O)[C@H]1Cc1ccccc1)C(N)=O

The remaining lines, values behind:

SMILES	IC50 [1]	IC50 [2]	Ki [3]	inhibition [4]	inhibition [5]
N=C(N)N1CCC[C@@H](C[C@H](NC(=O)CN2C(=O)CN(CCCc3ccccc3)C(=O)[C@H]2Cc2ccccc2)C(=O)c2nccs2)C1	0.17 µM	9.1 µM	0.055 µM	–	–
N=C(N)N1CCCC(C[C@H](NC(=O)CN2C(=O)CN(CCCc3ccc([N+](=O)[O-])cc3)C(=O)[C@H]2Cc2ccccc2)C(=O)c2nccs2)C1 (some centres not stated)	0.21 µM	9.1 µM	–	–	–
N=C(N)N1CCCC(C[C@H](NC(=O)CN2C(=O)CN(CCCc3ccccc3)C(=O)[C@H]2Cc2cccc(Cl)c2)C(=O)c2nccs2)C1 (some centres not stated)	0.39 µM	4.8 µM	0.02 µM	–	–
CCCCN1CC(=O)N(CC(=O)N[C@@H](CC2CCCN(C(=N)N)C2)C(=O)c2nccs2)[C@H](Cc2ccccc2)C1=O (some centres not stated)	0.34 µM	15 µM	0.032 µM	–	–
N=C(N)N1CCCC(C[C@H](NC(=O)CN2C(=O)CN(CCCc3ccc(Cl)cc3)C(=O)[C@H]2Cc2ccccc2)C(=O)c2nccs2)C1 (some centres not stated)	0.11 µM	4.8 µM	–	–	–
N=C(N)N1CCCC(C[C@H](NC(=O)CN2C(=O)CN(CCCc3ccccc3)C(=O)[C@H]2Cc2ccc(Cl)c(Cl)c2)C(=O)c2nccs2)C1 (some centres not stated)	0.08 µM	7.8 µM	0.008 µM	–	–
N=C(N)N1CCCC(C[C@H](NC(=O)CN2C(=O)CN(CCCc3ccccc3)C(=O)[C@H]2Cc2ccccc2)C(=O)N2CCCC2)C1 (some centres not stated)	0.66 µM	8.7 µM	0.13 µM	–	–
N=C(N)N1CCCC(C[C@H](NC(=O)CN2C(=O)CN(CCCc3ccccc3)C(=O)[C@H]2C(c2ccccc2)c2ccccc2)C(=O)c2nccs2)C1 (some centres not stated)	0.35 µM	8.5 µM	–	–	–
CNC(=O)[C@H](CC1CCCN(C(=N)N)C1)NC(=O)CN1C(=O)CN(CCCc2ccccc2)C(=O)[C@H]1Cc1ccccc1 (some centres not stated)	0.44 µM	2.3 µM	0.055 µM	–	–
CC(C)c1ccc(CCCN2CC(=O)N(CC(=O)N[C@@H](CC3CCCN(C(=N)N)C3)C(=O)c3nccs3)[C@H](Cc3ccccc3)C2=O)cc1 (some centres not stated)	0.37 µM	7 µM	–	–	–
N=C(N)NCCC[C@H](NC(=O)CN1C(=O)CN(CCCc2ccccc2)C(=O)[C@H]1Cc1ccccc1)C(=O)c1nccs1	3.4 µM	0.096 µM	–	–	–
N=C(N)N1CCCC(C[C@H](NC(=O)CN2C(=O)CN(CCCc3ccccc3)C(=O)[C@H]2Cc2ccc3ccccc3c2)C(=O)c2nccs2)C1 (some centres not stated)	0.16 µM	18.2 µM	0.055 µM	–	–
Cc1ccc(CCCN2CC(=O)N(CC(=O)N[C@@H](CC3CCCN(C(=N)N)C3)C(=O)c3nccs3)[C@H](Cc3ccccc3)C2=O)cc1 (some centres not stated)	0.21 µM	4.1 µM	–	–	–
N=C(N)N1CCCC(C[C@H](NC(=O)CN2C(=O)CN(CCCc3ccccc3)C(=O)[C@H]2Cc2ccccc2Cl)C(=O)c2nccs2)C1 (some centres not stated)	0.018 µM	9.7 µM	0.0012 µM	–	–
N=C(N)N1CCCC(C[C@H](NC(=O)CN2C(=O)CN(Cc3ccccc3)C(=O)[C@@H]2Cc2ccc3ccccc3c2)C(=O)c2nccs2)C1 (some centres not stated)	0.17 µM	–	0.0035 µM	–	–
